Test results reported in publication PMC2951135 (Journal of medicinal chemistry, 2010).
“Also recorded” adds a separate entry of the source.

Experiments:
[1] = Hydrolysis of ester 7 in rat plasma; assay type: in vitro ADME; details: 37 °C, solubilized in DMSO
[2] = Control incubation of ester 7 with saline in place of plasma; assay type: in vitro ADME; details: 37 °C, 1 or 2 h
rats [3] = test: Tissue iron decorporation in rats after 10 days of dosing; assay type: in vivo, Sprague-Dawley rats
[4] = Hydrolysis of ester 7 in monkey plasma; assay type: in vitro ADME, Cebus apella monkeys; details: Cebus apella monkey plasma, 37 °C, solubilized in DMSO
[5] = pH 7.4
rats [6] = test: Ten-day toxicity trial in rats; assay type: in vivo, Sprague-Dawley rats
[7] = test system: iron-overloaded C. apella primates; test: Chelator-induced iron clearance in iron-overloaded primates; assay type: in vivo, Cebus apella monkeys
[8] = test system: non iron-overloaded, bile duct-cannulated rats; assay type: in vivo, Sprague-Dawley rats
[9] = cited from earlier work
[10] = test system: non iron-overloaded, bile duct-cannulated rats; details: po 300 μmol/kg; cited from earlier work
[11] = clinical trial abandoned by Genzyme; cited from earlier work
[12] = orally once daily 384 μmol/kg/d × 10 d
[13] = po 75 μmol/kg by gavage as monosodium salt

**Q.** For `CCOC(=O)[C@@]1(C)CSC(c2ccc(OCCOCCOC)cc2O)=N1` [Compound 7, ethyl (S)-4,5-dihydro-2-[2-hydroxy-4-(3,6-dioxaheptyloxy)phenyl]-4-methyl-4-thiazolecarboxylate], which “time for conversion of all of the ester to the active acid 6” value [1] is on record?
**A.** 1 to 2 h

**Q.** And the “stability of the ester in saline” value [2]?
**A.** all of the drug remained in the form of the ester

**Q.** What about the “decrease in cardiac iron vs untreated controls” value (rats [3]; capsules, 192 μmol/kg/d × 10 d) of the same compound?
**A.** Neither dose was associated with a reduction in pancreatic or cardiac iron content

**Q.** What about the “reduction in pancreatic iron vs untreated controls” value (“reduction in pancreatic iron” for short) (rats [3]; capsules, 192 μmol/kg/d × 10 d) of the same compound?
**A.** Neither dose was associated with a reduction in pancreatic or cardiac iron content

**Q.** What about the “decrease in cardiac iron vs untreated controls” value (rats [3]; capsules, 384 μmol/kg/d × 10 d) of the same compound?
**A.** Neither dose was associated with a reduction in pancreatic or cardiac iron content

**Q.** What about the “reduction in pancreatic iron” value (rats [3]; capsules, 384 μmol/kg/d × 10 d) of the same compound?
**A.** Neither dose was associated with a reduction in pancreatic or cardiac iron content

**Q.** And the “time for conversion of all of the ester to the active acid 6” value [4]?
**A.** 1 to 2 h

**Q.** And the “times more lipophilic than the parent 2” value [5]?
**A.** 11,220 times

**Q.** And the histopathology (rats [6]; [12])?
**A.** Mild to moderate vacuolar degeneration of the proximal tubular epithelial cells; also recorded: unacceptable renal toxicity

**Q.** And the histopathology (rats [6]; orally once daily in capsules 192 μmol/kg/d × 10 d)?
**A.** no drug-related abnormalities

**Q.** For `COCCOCCOc1ccc(C2=N[C@@](C)(C(=O)O)CS2)c(O)c1` [Compound 6, (S)-4,5-dihydro-2-[2-hydroxy-4-(3,6-dioxaheptyloxy)phenyl]-4-methyl-4-thiazolecarboxylic acid], which “Primate Iron-Clearing Efficiency” value [7, 13] is on record?
**A.** 28.7 ± 12.4%

**Q.** And the “relative percentage of the iron excreted in the urine (primates)” value [7, 13]?
**A.** 17%

**Q.** What about the “Primate Iron-Clearing Efficiency” value ([7]; po 75 μmol/kg in capsules) of the same compound?
**A.** > 26%

**Q.** What about the “relative percentage of the iron excreted in the feces (primates)” value ([7]; po 75 μmol/kg in capsules) of the same compound?
**A.** 93%

**Q.** And the “Performance Ratio (mean ICEprimates/ICErodents)” value ([7]; primates given the monosodium salt by gavage, rodents capsules)?
**A.** 1.1

**Q.** What about the “reduction in pancreatic iron” value (rats [3]; capsules, 384 μmol/kg/d × 10 d) of the same compound?
**A.** not when it was dosed in capsules

**Q.** What about the “reduction in pancreatic iron” value (rats [3]; gavage as sodium salt, 384 μmol/kg/d × 10 d) of the same compound?
**A.** significant reduction in pancreatic iron

**Q.** What about the “Rodent Iron-Clearing Efficiency” value ([8]; po 300 μmol/kg in capsules, 48 h sample collection period) of the same compound?
**A.** > 26%

**Q.** And the histopathology (rats [6]; [12])?
**A.** no obvious histopathologies; also recorded: cannot be reliably differentiated histologically from the tissues from rats in Group 2; also recorded: no histological abnormalities noted between the treated and the control groups

**Q.** For `COc1ccc(C2=N[C@@](C)(C(=O)[O-])CS2)c(O)c1.[Na+]` [Compound 3, (S)-4,5-dihydro-2-(2-hydroxy-4-methoxyphenyl)-4-methyl-4-thiazolecarboxylic acid], which nephrotoxicity [9] is on record?
**A.** very nephrotoxic; also recorded: unacceptably nephrotoxic

**Q.** And the “relative percentage of the iron excreted in the bile (rodents)” value (from here on “relative percentage … in the bile (rodents)”) [10]?
**A.** 98%

**Q.** What about the “relative percentage of the iron excreted in the urine (rodents)” value (from here on “relative percentage … in the urine (rodents)”) [10] of the same compound?
**A.** 2%

**Q.** For `COCCOCCOCCOCCOc1ccc(C2=N[C@@](C)(C(=O)[O-])CS2)c(O)c1.[Na+]` [Compound 5, (S)-4,5-dihydro-2-[2-hydroxy-4-(3,6,9,12-tetraoxatridecyloxy)phenyl]-4-methyl-4-thiazolecarboxylic acid], which “ICE in rodents relative to the parent 2” value ([8]; po 300 μmol/kg) is on record?
**A.** ~11 times

**Q.** For `COCCOCCOCCOc1ccc(C2=N[C@@](C)(C(=O)O)CS2)c(O)c1` [Compound 4, (S)-4,5-dihydro-2-[2-hydroxy-4-(3,6,9-trioxadecyloxy)phenyl]-4-methyl-4-thiazolecarboxylic acid], which nephrotoxicity [9] is on record?
**A.** virtually absent of any nephrotoxicity

**Q.** What about the “ICE in primates relative to the longer analogue 5” value ([7]; monkey, in vivo) of the same compound?
**A.** 2.5

**Q.** What about the “relative percentage … in the bile (rodents)” value [10] of the same compound?
**A.** 90%

**Q.** What about the “relative percentage … in the urine (rodents)” value [10] of the same compound?
**A.** 10%

**Q.** With `C[C@]1(C(=O)[O-])CSC(c2ccc(O)cc2O)=N1.[Na+]` [Compound 2, (S)-2-(2,4-dihydroxyphenyl)-4,5-dihydro-4-methyl-4-thiazolecarboxylic acid] as the compound, how does the “toxicity that led to abandonment of the clinical trial” value [11] read?
**A.** nephrotoxicity; also recorded: renal toxicity

**Q.** What about the “relative percentage … in the bile (rodents)” value [10] of the same compound?
**A.** 100%

**Q.** And the “relative percentage … in the urine (rodents)” value [10]?
**A.** 0%

**Q.** Which nephrotoxicity [9] does the source give for `C[C@]1(C(=O)O)CSC(c2ncccc2O)=N1` [Compound 1, (S)-4,5-dihydro-2-(3-hydroxy-2-pyridinyl)-4-methyl-4-thiazolecarboxylic acid] here?
**A.** severely nephrotoxic
